The subject of one series is mouse myoblasts. The series can be described thus: Cytotoxicity of sucralose on nucleated cells. Format: cell-based. From the text: Protection against hemolysis of red blood cells in the presence of increasing amounts of sucralose was examined at 3.5×(˜0.7 billion cells/ml) and 7×(˜1.4 billion cells/ml) the original red blood cell count, and are shown in FIGS. 15A and 15B, respectively. […] In addition, studies on the cytotoxicity of sucralose on nucleated cells, mouse myoblasts, indicate that sucralose concentrations in excess of about 2.5% w/v may have toxic effects.

The subject of series [1] is red blood cells. The series can be described thus: Percent hemolysis of red blood cells on addition of sucralose (no freezing). The format is cell-based, sheep. The following applies: measured against PBS buffer and triton X. The protocol: (§1) Experiments that measure the percent hemolysis of red blood cells before and after treatment were carried out using sheep blood.
(§2) We measured absorption at three wavelengths (450 nm, 500 nm and 525 nm, shown in FIGS. 10, 11 and 12, respectively). […] That is why the error bars are smallest for those.

For series [2], the system named is red blood cells. Briefly: Percent hemolysis of red blood cells frozen with sucralose and thawed. Format: cell-based, sheep. The following applies: for protective effect compared with 20% glycerol solution: equivalent volume of 20% v/v glycerol, blood frozen for 48 hours; for protection during freezing (hemolysis): measured against triton X and PBS. The protocol:
as §1
This is data from blood frozen for 48 hours.
as §2

Series [3] in a line: Differential scanning calorimetry of unilamellar DPPC vesicles with added sugar. The following applies: for cooperativity of the transition (peak width at half peak height, PWHH) / enthalpy of main phase transition / main phase transition temperature of DPPC liposomes: increasing mole ratio of sugar to lipid; for main phase transition temperature of DPPC liposomes: DSC 30-60 °C at 2 °C/min, DPPC alone ~42 °C. The format is physicochemical. The protocol:
Methods: Unilamellar vesicles were prepared by extrusion. Sucrose or sucralose was added to the vesicles to achieve the desired mole ratio after vesicle formation. Differential scanning calorimetry was used to examine the main phase behavior of the liposome bilayer. Thermograms were obtained in the heating and cooling directions between 30° C. and 60° C. at a rate of 2° C./min.
Background: Differential scanning calorimetry records heat flow against a reference as temperature is scanned.

With `OC[C@H]1O[C@H](O[C@]2(CCl)O[C@H](CCl)[C@@H](O)[C@@H]2O)[C@H](O)[C@@H](O)[C@H]1Cl` [sucralose, 1,6-Dichloro-1,6-dideoxy-β-D-fructofuranosyl-4-chloro-4-deoxy-α-D-galactopyranoside], in the series on mouse myoblasts, the “sucralose concentration that may have toxic effects” value is on record as “above 2.5 % w/v”. In the series on red blood cells [1], the “induction of hemolysis on addition” value was “does not induce hemolysis”. Further, the “protective effect compared with 20% glycerol solution” value with red blood cells [2] is reported as “better than using an equivalent volume of a 20% glycerol solution”; in the series on red blood cells [2] (listed as sugar) it was “performs better than a 20% v/v solution of glycerol”. Moreover, the “protection during freezing (hemolysis)” value is on record as “substantially reduces hemolysis” with red blood cells [2] (frozen and thawed); “protective effect” in the series with red blood cells [2] (frozen and thawed, listed as sugar). Also, in the series with red blood cells [2] (frozen and thawed, ~0.7 and ~1.4 billion cells/ml), the “sucralose concentration resulting in decreased efficacy in protecting red blood cells from hemolysis” value is reported as “above 2.5 % w/v”. The “amount of sucralose required for cryopreservation of red blood cells” value in the series with red blood cells [2] (red blood cell count about 0.2 to 1.4 billion cells/ml) is listed as “increases with an increase of red blood cell concentration”. Further, the “shoulders in thermograms (indicative of phase separation)” value (shortened to “shoulders in thermograms”) in series [3] (cooling cycle) was “not seen”; in series [3] (heating cycle), “a shoulder is seen in some thermograms”. The “cooperativity of the transition (peak width at half peak height, PWHH)” value in series [3] was “drastic decrease in cooperativity”. The “enthalpy of main phase transition” value in series [3] is “remained essentially unchanged”. The “main phase transition temperature of DPPC liposomes” value in series [3] was “decreased significantly”.

On to `OC[C@H]1O[C@@](CO)(O[C@H]2O[C@H](CO)[C@@H](O)[C@H](O)[C@H]2O)[C@@H](O)[C@@H]1O` [sucrose], for which the “shoulders in thermograms” value in series [3] (cooling cycle) is “shoulders are again observed”. For the same compound, the “shoulders in thermograms” value in series [3] (heating cycle) was “shoulders appear”. For the same compound, in series [3], the “cooperativity of the transition (peak width at half peak height, PWHH)” value is listed as “decrease in cooperativity”; the “enthalpy of main phase transition” value is “remains relatively stable”; the “main phase transition temperature of DPPC liposomes” value is on record as “little change”.
